{"source": "patent US20260216197A1", "about": "“WRN HELICASE INHIBITOR” (SUZHOU PUHE BIOPHARMA CO., LTD., priority 2022, published 2026)", "key": {"[1]": {"tested_on": "MSI-H colorectal cancer SW48 cell line", "assay": "2D anti-proliferative activity, MSI-H SW48 cells (CTG, 5 days)", "assay_type": "cell-based", "conditions": "for inhibition at 38.15 pM: 0.038146973 nM; for inhibition at 0.000152588 µM: 0.152587891 nM; for inhibition at 0.000610352 µM: 0.610351563 nM; for inhibition at 0.00244141 µM: 2.44140625 nM; for inhibition at 0.00976562 µM: 9.765625 nM; for inhibition at 0.0390625 µM: 39.0625 nM; for inhibition at 0.15625 µM: 156.25 nM; for inhibition at 0.625 µM: 625 nM; for inhibition at […]: 2500 nM; for inhibition at 10 µM: 10000 nM", "procedure,_shortened": "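SW48 cells in RPMI 1640/10% FBS were exposed to serially varied compound concentrations for 5 days at 37 °C, 5% CO2. Viability was read as ATP-dependent CellTiter-Glo luminescence after 30 min.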"}, "[2]": {"tested_on": "MSS colorectal cancer HT-29 cell line", "assay": "2D anti-proliferative activity, MSS HT-29 cells (CTG, 5 days)", "assay_type": "cell-based", "conditions": "Homo sapiens, 120 h", "procedure,_shortened": "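HT-29 cells in McCoy's 5A with 10% FBS exposed to compound for 5 days at 37° C, 5% CO2 in 384-well format. Viable cells read as ATP luminescence (CellTiter-Glo) after 30 min.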"}, "[3]": {"assay": "Liver microsome stability test", "assay_type": "in vitro ADME", "conditions": "human liver microsomes 0.5 mg/mL, compound 1 μM, NADPH 1 mM, 60 minutes"}, "[4]": {"assay": "Caco-2 membrane permeability assay", "assay_type": "in vitro ADME", "conditions": "human; Caco-2, apical pH 6.5, basolateral pH 7.4", "method": "The membrane permeability of the molecule of the present disclosure was evaluated. Samples were analyzed by LC-MS to estimate the apparent permeability coefficient (Papp) of the compounds across Caco-2 cell monolayers, with the apical chamber at pH 6.5 and the basolateral chamber at pH 7.4. Active efflux transport of compounds can be blocked using inhibitors of P-gp efflux transporter, BCRP, and MRP2 (50 μM quinidine, 30 μM benzbromarone, and 20 μM sulfasalazine). The data were used to determine apparent permeability (Papp).\n[formula] • where VA is the volume of the receptor pore (in mL), Area is the surface area of the membrane (0.143 cm^2 for Transwell-96 well permeable scaffolds), and time is the total transport time (in seconds)."}, "[5]": {"tested_on": "SW 48 (MSI-H) colorectal cancer cells", "assay": "In vivo pharmacodynamic assay, SW48 xenograft in nude mice", "design": "species or system BALB/c nude mice", "conditions": "50 mg/kg, QD, oral", "method": "In vivo pharmacodynamic assay in BALB/c nude mice. Details are as follows:\nSW 48 (MSI-H) colorectal cancer cells were cultured (L15 medium with 10% fetal bovine serum), and then inoculated into 6-8-week old female BALB/c nude mice (weighing about 20 g), wherein all mice were inoculated subcutaneously. The mice were cultured in an SPF-grade experimental environment, and all mice had free access to commercially certified standard diets. When the average tumor volume of the mice grew to about 150 mm^3, the test compound was orally administered daily. The dosage was as follows: blank group vehicle (10% HP-β-CD aqueous solution, pH-7). The dosage of the administration group was 120 mg/kg, 50 mg/kg, or 20 mg/kg, once a day. The tumor volume was measured with a two-dimensional caliper three times a week, and the animals were weighed every day. […] The tumor volume was calculated using the formula: V=½a*b^2, where a represents the long diameter of the tumor, and b represents the short diameter of the tumor."}, "[6]": {"conditions": "Homo sapiens, read-out: Average value/ Inhibition rate"}, "[7]": {"conditions": "Homo sapiens, read-out: Test 1/ Inhibition rate"}, "[8]": {"conditions": "Homo sapiens, read-out: Test 2/ Inhibition rate"}}, "note": "Read-outs that look alike come from different tables or passages of the source."}
{"smiles": "CCc1c(N2CCN(C(=O)c3ncnc(C)c3O)CC2)c(=O)n2nc(C3=CCOCC3)nc2n1CC(=O)Nc1ccc(C(F)(F)F)c2ccoc12", "note": "[Compound H22]", "values": [{"measurement": "inhibitory activity on SW48 cells", "setting": "[1]; 39 nM", "result": "high inhibitory activity"}, {"measurement": "inhibition at 38.15 pM", "setting": "[1]; [6]", "result": -4.19, "unit": "%"}, {"measurement": "inhibition at 38.15 pM", "setting": "[1]; [7]", "result": -1.57, "unit": "%"}, {"measurement": "inhibition at 38.15 pM", "setting": "[1]; [8]", "result": -6.81, "unit": "%"}, {"measurement": "inhibition at 0.000152588 µM", "setting": "[1]; [6]", "result": 0.206, "unit": "%"}, {"measurement": "inhibition at 0.000152588 µM", "setting": "[1]; [7]", "result": -0.184, "unit": "%"}, {"measurement": "inhibition at 0.000152588 µM", "setting": "[1]; [8]", "result": 0.596, "unit": "%"}, {"measurement": "inhibition at 0.000610352 µM", "setting": "[1]; [6]", "result": -2.48, "unit": "%"}, {"measurement": "inhibition at 0.000610352 µM", "setting": "[1]; [7]", "result": -1.27, "unit": "%"}, {"measurement": "inhibition at 0.000610352 µM", "setting": "[1]; [8]", "result": -3.7, "unit": "%"}, {"measurement": "inhibition at 0.00244141 µM", "setting": "[1]; [6]", "result": -0.303, "unit": "%"}, {"measurement": "inhibition at 0.00244141 µM", "setting": "[1]; [7]", "result": 2.69, "unit": "%"}, {"measurement": "inhibition at 0.00244141 µM", "setting": "[1]; [8]", "result": -3.3, "unit": "%"}, {"measurement": "inhibition at 0.00976562 µM", "setting": "[1]; [6]", "result": -6.3, "unit": "%"}, {"measurement": "inhibition at 0.00976562 µM", "setting": "[1]; [7]", "result": -5.49, "unit": "%"}, {"measurement": "inhibition at 0.00976562 µM", "setting": "[1]; [8]", "result": -7.12, "unit": "%"}, {"measurement": "inhibition at 0.0390625 µM", "setting": "[1]; [6]", "result": 29.2, "unit": "%"}, {"measurement": "inhibition at 0.0390625 µM", "setting": "[1]; [7]", "result": 28.4, "unit": "%"}, {"measurement": "inhibition at 0.0390625 µM", "setting": "[1]; [8]", "result": 30, "unit": "%"}, {"measurement": "inhibition at 0.15625 µM", "setting": "[1]; [6]", "result": 98, "unit": "%"}, {"measurement": "inhibition at 0.15625 µM", "setting": "[1]; [7]", "result": 98.4, "unit": "%"}, {"measurement": "inhibition at 0.15625 µM", "setting": "[1]; [8]", "result": 97.6, "unit": "%"}, {"measurement": "inhibition at 0.625 µM", "setting": "[1]; [6]", "result": 98.1, "unit": "%"}, {"measurement": "inhibition at 0.625 µM", "setting": "[1]; [7]", "result": 98.3, "unit": "%"}, {"measurement": "inhibition at 0.625 µM", "setting": "[1]; [8]", "result": 97.9, "unit": "%"}, {"measurement": "inhibition at […]", "setting": "[1]; [6]", "result": 99.6, "unit": "%"}, {"measurement": "inhibition at […]", "setting": "[1]; [7]", "result": 99.9, "unit": "%"}, {"measurement": "inhibition at […]", "setting": "[1]; [8]", "result": 99.2, "unit": "%"}, {"measurement": "inhibition at 10 µM", "setting": "[1]; [6]", "result": 101, "unit": "%"}, {"measurement": "inhibition at 10 µM", "setting": "[1]; [7]", "result": 102, "unit": "%"}, {"measurement": "inhibition at 10 µM", "setting": "[1]; [8]", "result": 101, "unit": "%"}, {"measurement": "IC50", "setting": "[1]; Homo sapiens, 120 h, 5 days", "result": 47, "unit": "nM"}, {"measurement": "IC50", "setting": "[2]", "result": "> 10000", "unit": "nM"}, {"measurement": "CLint scaled at 1 μM", "setting": "[3]", "result": "< 6.8", "unit": "mL/min/kg"}, {"measurement": "microsomal CLint at 1 μM", "setting": "[3]; read-out: Human Clint μL/min/mg Protein", "result": "< 5.4", "unit": "µL/min/mg"}, {"measurement": "Papp A→B", "setting": "[4]", "result": 3.2, "unit": "×10⁻⁶ cm/s"}, {"measurement": "Papp B→A", "setting": "[4]", "result": 21, "unit": "×10⁻⁶ cm/s"}, {"measurement": "TGI", "setting": "[5]", "result": 104, "unit": "%"}, {"measurement": "Tumor volume (mm^3)-D 1", "setting": "[5]; day 1", "result": 162, "unit": "mm^3"}, {"measurement": "Tumor volume (mm^3)-D 21", "setting": "[5]; day 21", "result": 89, "unit": "mm^3"}]}
